Laboratory results reported in ChEMBL document CHEMBL1150076, “Effects of various isoquinoline alkaloids on in vitro 3H-dopamine uptake by rat striatal synaptosomes” (J Nat Prod, 1995).

Target: Sodium-dependent dopamine transporter (Rattus norvegicus, UniProt P23977)
Format: subcellular, Wistar, Brain, Synaptosomes

Sequence of Sodium-dependent dopamine transporter (P23977 whole entry): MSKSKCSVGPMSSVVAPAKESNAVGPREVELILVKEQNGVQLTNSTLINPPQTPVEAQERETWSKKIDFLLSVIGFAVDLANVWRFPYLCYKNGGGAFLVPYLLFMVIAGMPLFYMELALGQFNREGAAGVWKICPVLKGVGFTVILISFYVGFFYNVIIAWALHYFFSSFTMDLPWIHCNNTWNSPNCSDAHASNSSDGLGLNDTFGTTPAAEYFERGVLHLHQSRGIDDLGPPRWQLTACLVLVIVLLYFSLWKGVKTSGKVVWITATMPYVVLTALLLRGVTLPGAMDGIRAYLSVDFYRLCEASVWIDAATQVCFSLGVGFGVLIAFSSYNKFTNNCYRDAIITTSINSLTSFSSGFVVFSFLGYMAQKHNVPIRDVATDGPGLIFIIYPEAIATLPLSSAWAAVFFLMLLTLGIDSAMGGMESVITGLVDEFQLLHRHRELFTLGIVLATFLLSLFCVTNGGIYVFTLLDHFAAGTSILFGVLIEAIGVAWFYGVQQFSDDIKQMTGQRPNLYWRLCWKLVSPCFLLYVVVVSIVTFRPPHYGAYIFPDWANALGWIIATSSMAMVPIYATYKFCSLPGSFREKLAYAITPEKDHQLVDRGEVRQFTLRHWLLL

Row | SMILES | IC50 [µM]
1 | O=C(O)CCCCCCNC1c2ccccc2CCc2ccccc21 [AMINEPTINE] | 1
2 | COc1c(O)c2c3c(c1OC)CCN(C)[C@@H]3Cc1ccccc1-2 | 46.4
3 | COc1cc2c(cc1OC)Oc1c(O)ccc3c1[C@H](C2)N(C)CC3 [CULARIDINE] | 41.2
4 | COc1cc2c(cc1OC)[C@@H](Cc1ccc(Oc3cc(C[C@@H]4c5cc(OC)c(OC)cc5CCN4C)ccc3OC)cc1)N(C)CC2 | 5.8
5 | O=C1c2ccccc2-c2c3c(cc4ccnc1c24)OCO3 [LIRIODENINE] | 31.2
6 | COc1c(O)c2c3c(nccc3c1OC)C(C)(C)c1cc(O)ccc1-2 [MELOSMINE] | 23.6
7 | COc1cc2c(cc1OC)C(=O)c1nccc3ccc(OC)c(c13)O2 [OXOCULARINE] | > 100
8 | COc1cc2c(cc1OC)[C@H](Cc1ccc(O)cc1)NCC2 [NORARMEPAVINE] | 37
9 | COc1ccc2cc1Oc1ccc(cc1)C[C@H]1c3c(cc(OC)c(O)c3Oc3cc4c(cc3OC)CCN(C)[C@@H]4C2)CCN1C [HOMOAROMOLINE] | 10.9
10 | Oc1ccc2c(c1)C[C@H]1NCCc3cc4c(c-2c31)OCO4 [ANOLOBINE] | 8.1
11 | COc1ccc2cc1Oc1ccc(cc1)C[C@@H]1c3cc(c(OC)cc3CCN1C)Oc1c(OC)c(OC)cc3c1[C@H](C2)N(C)CC3 [ISOTETRANDRINE] | 4.2
12 | COc1cc2c(cc1O)C[C@H]1c3c(ccc(O)c3O2)CCN1C [BREOGANINE] | 56.5
13 | COc1cc2c(cc1OC)Oc1c(OC)ccc(CCN(C)C)c1C=C2 [SECOCULARINE] | 28.2
14 | COc1cc2c(cc1OC)[C@@H](Cc1ccc(OC)c(Oc3ccc(C[C@H]4NCCc5cc(OC)c(OC)cc54)cc3)c1)N(C)CC2 [PAMPULHAMINE] | 84.2
15 | COc1cc2ccnc3c2c(c1OC)-c1ccccc1C3=O [LYSICAMINE] | > 100
16 | COc1cc2c(cc1O)C[C@@H]1NCCc3cc(O)c(OC)c-2c31 [NORBOLDINE] | 16.5
17 | COc1cc2c(cc1O)[C@H](Cc1ccc(O)cc1)NCC2 [L-COCLAURINE] | 14.1
18 | COc1c(O)c2c3c(c1OC)CCN[C@@H]3Cc1ccccc1-2 [ISOPILINE] | 2.5
19 | Cc1c2c3c(cc4c(c3c3ccc(O)cc13)OCO4)CCN2C [BELEMINE] | 61.4

Row | SMILES | IC50 [µM]
20 | COc1ccc2c(c1O)Oc1c(OC)ccc3c1[C@H](C2)N(C)CC3 [SARCOCAPNIDINE] | 85.5
21 | COc1ccc(C[C@H]2c3c(cc(OC)c4c3Oc3cc5c(cc3O4)CCN(C)C5=O)CCN2C)cc1-c1cc(C=O)ccc1O [SECOLUCIDINE] | > 100
22 | COc1cc(C[C@H]2c3c(ccc(OC)c3O)CCN2C)ccc1O [ISOCRASSIFOLINE] | 36.2
23 | COc1cccc2c1-c1c3c(cc4c1[C@@H](C2)N(C)CC4)OCO3 | 31.8
24 | COc1ccc2cc1Oc1ccc(cc1)C[C@H]1c3c(cc(OC)c(OC)c3Oc3cc4c(cc3OC)CCN(C)[C@@H]4C2)CCN1C [OBABERINE] | 3.9
25 | COc1cc2c(cc1O)Oc1c(O)ccc3c1[C@H](C2)N(C)CC3 [CELTISINE] | > 100
26 | COc1c2c3c(c4c1OCO4)-c1ccccc1C[C@H]3NCC2 [NORSTEPHALAGINE] | 1.4
27 | COc1cc2c3c(c(-c4c5c6c(cc7c(c6c6ccccc46)OCO7)CCN5)c4ccccc4c3c1OC)NCC2 [HETEROPSINE] | > 100
28 | COc1ccc2c(c1OC)Oc1c(O)ccc3ccnc(c13)C2 [OXOSARCOPHYLLINE] | > 100
29 | COc1cc2c3cc1Oc1c(O)c(OC)cc4c1[C@H](Cc1ccc(OC)c(c1)-c1cc(ccc1O)C[C@H]3N(C)CC2)N(C)CC4 [ANTIOQUINE] | 3.4
30 | COc1cc2c(cc1OC)Oc1c(O)ccc(CCN(C)C)c1C=C2 [SECOCULARIDINE] | 13.4
31 | c1ccc2c(c1)C[C@H]1NCCc3cc4c(c-2c31)OCO4 [ANONAINE] | 0.8
32 | COc1cc2c3c(c1OC)-c1c(ccc(O)c1O)C[C@H]3N(C)CC2 [SAUVEOLINE] | > 100
33 | COc1ccc2c(c1O)Oc1c(O)ccc3c1[C@H](C2)N(C)CC3 [CLAVICULINE] | > 100
34 | COc1cc2c(cc1Oc1c(O)c(OC)cc3c1[C@H](Cc1ccc(OC)c(-c4cc(C=O)ccc4O)c1)N(C)CC3)C(=O)N(C)CC2 [SECANTIOQUINE] | > 100
35 | COc1cc2c3cc1Oc1c(OC)c(OC)cc4c1[C@@H](C(=O)c1ccc(OC)c(c1)-c1cc(ccc1OC)C[C@H]3N(C)CC2)N(C)CC4 [DIMETHYLPSEUDOXANDRINE] | 20.1
36 | COc1cc2c(cc1OC)[C@@H](Cc1ccc(Oc3cc(C[C@H]4c5cc(OC)c(OC)cc5CCN4C)ccc3OC)cc1)N(C)CC2 [DIMETHYLGRISABINE] | 1.1
37 | COc1ccc2c(c1)c(C)c1c3c(cc4c(c32)OCO4)CCN1C | 46.6
